Test results from patent US5679673A (priority 1994, dated 1997).

Assays:
sigma receptor [1] = biological target: T1, sigma receptor (Cavia porcellus, UniProt Q60492); test: Radioreceptor assay: displacement of [3H](+)-pentazocine from guinea pig brain membranes; type: binding; settings: [3H](+)-pentazocine 3 nM, guinea pig brain crude P2 membranes, pH 8.0, 120 min, 25° C.; average of 2-4 experiments; from IC50 by Cheng-Prusoff; read-out: Ki ([3H] (+) -Pent)
T1 construct: crude synaptosomal (P2) membrane fraction of guinea pig brain; tissue Pel-Freeze (frozen guinea pig brains); host or cells: guinea pig brain minus cerebella, crude P2 membranes
T1 sequence (Q60492 whole entry): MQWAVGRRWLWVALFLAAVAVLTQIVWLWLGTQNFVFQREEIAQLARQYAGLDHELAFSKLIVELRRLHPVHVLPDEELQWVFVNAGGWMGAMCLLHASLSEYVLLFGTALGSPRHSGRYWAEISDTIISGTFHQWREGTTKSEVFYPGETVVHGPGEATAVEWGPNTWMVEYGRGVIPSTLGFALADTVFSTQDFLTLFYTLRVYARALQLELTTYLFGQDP

NMDA receptor = settings: C. Carter et al, J. Pharm Exp. Ther., 1988; cited from earlier work
sigma receptor [2] = settings: de Costa et al, J. Med. Chem. 1989 and further structure activity studies; cited from earlier work

Compound | NMDA receptor antagonism (NMDA receptor) | sigma receptor ligand (sigma receptor [2]) | other results
Clc1ccc(CCN2CCN3CCC2CC3)cc1Cl [Compound of Ex. 5, 4-[2-(3,4-Dichlorophenyl)ethyl]-1,4-diazabicyclo[2.2.3]nonane] | – | – | Ki (sigma receptor [1]): 0.125 µM
CC(C(O)c1ccc(O)cc1)N1CCC(Cc2ccccc2)CC1 (centres unmarked) [ifenprodil] | non-competitive NMDA receptor antagonists | – | –
CN(CCc1ccc(Cl)c(Cl)c1)[C@@H]1CCCC[C@@H]1N1CCCC1 (single isomer, unassigned) [(+)-cis-N-[3,4-dichlorophenylethyl]-N-methyl-2-(1-pyrrolidinyl)-cyclohexylamine] | – | extremely potent and selective ligands for the sigma receptor | –
1-(4-chlorophenyl)-2-[1-(4-fluorophenyl)-piperidinyl]ethanol | non-competitive NMDA receptor antagonists | – | –
CN(CCc1ccc(Cl)c(Cl)c1)[C@@H]1CCCC[C@@H]1N1CCCC1 (single isomer, unassigned) [(-)-cis-N-[3,4-dichlorophenylethyl]-N-methyl-2-(1-pyrrolidinyl)-cyclohexylamine] | – | extremely potent and selective ligands for the sigma receptor | –
